The nature of the assay: GC-odor threshold concentration (gas chromatograph with sniff port, panel of trained evaluators). Conditions: for Odor threshold concentration (relative): GC sniff port, panel of trained evaluators, identical conditions, relative values (Ic = 1). On the procedure: Definition: The odour threshold concentration is defined as the lowest concentration of the vapour of an odourant material in the air which can be detected by smell and can be measured by standard methods known in the art. According to standard procedures known to the person skilled in the art, threshold concentrations for volatile perfumery compounds are determined on a gas chromatograph equipped with a sniff port by a panel of trained evaluators. The lowest concentration smelled by each panelist is recorded as the individual threshold concentration expressed in ng (absolute amount of compound delivered at the sniff port).

On to `CC(C)=CC[C@H](C)[C@H]1C[C@]1(C)CO` (relative stereo) [Compound Ib, [(1S*,2R*)-1-Methyl-2-[(S*)-5-methylhex-4-en-2-yl]cyclopropyl]methanol], for which the “Odor threshold concentration (relative)” value was 100.
`CC(C)=CC[C@@H](C)[C@H]1C[C@]1(C)CO` (relative stereo) [Compound Ic, [(1S*,2R*)-1-Methyl-2-[(R*)-5-methylhex-4-en-2-yl]cyclopropyl]methanol]: the “Odor threshold concentration (relative)” value was 1. For the same compound, the “odor threshold concentration, times lower than compound Ib” value (compared with [(1S*,2R*)-1-methyl-2-[(S*)-5-methylhex-4-en-2-yl]cyclopropyl]methanol (Ib)) was 100 times.
Regarding `CC(C)=CCCC(C)CCO` (stereo not shown) [Citronellol, 3,7-dimethyloct-6-enol, reference compound], the “Odor threshold concentration (relative)” value was found to be 185.
For `CC(C)=CCC(C)/C=C(\C)CO` (stereo not shown) [Compound Ia, 2,4,7-Trimethylocta-2,6-dien-1-ol], the “Odor threshold concentration (relative)” value amounted to 70. In addition, under “compared with citronellol”, the “odor threshold concentration, times lower than citronellol” value is recorded as “more than 2 times”. Besides, the “odor threshold concentration, times lower than geraniol” value (compared with geraniol) is “more than 11 times”.

Source of the values: patent publication US9120994B2, “Terpene alcohols for use in fragrance compositions and perfumed products” (Givaudan S.A., priority 2011, dated 2015).
